What was measured:
Test in all cases: APO2.7 staining
Format in all cases: cell-based, human
RPM18226 cells = settings: RPM18226, 10 ug/ml, 24 h
Description: (§1) Assessment of HNK-induced cytotoxicity against patient MM cells: […] A CD38^high fraction enriched for MM cells was determined in side and forward scatter panel in each case. The expression of CD138 on gated cells was also evaluated. After HNK-treatment for 48 h, cells were harvested and percentage of CD38^high cells with or without HNK-treatment was evaluated. Cell cycle analysis: MM cells cultured with HNK were harvested, fixed with 70% ethanol, and pretreated with 250 μg/mL of RNAse (Sigma, St Louis, Mo.). Cells were stained with propidium iodide (PI; 50 μg/mL; Sigma, St Louis, Mo.), and cell cycle profile was determined by using the program M software on an EPICS XL flow cytometer (Beckman Coulter, Hialeah, Fla.). Detection of apoptosis and caspase-3 activity: TdT-mediated d-UTP nick end labeling (TUNEL) assay (MBL, Nagoya, Japan) and APO 2.7 staining (Immunotech, Marseille, France) were used to determine apoptosis. In brief, cells were fixed and permeabilzed by 4% paraformaldehyde and 70% ethanol, respectively, and incubated with a mixture of FITC-dUTP and TdT for 1 h at 37° C. for TUNEL assay. For detection of mitochondrial membrane protein 7A6 expression on apoptotic cells, cells were incubated with APO 2.7 reagent for 20 minutes. Fluorescence intensity of TUNEL and APO 2.7 staining was determined using on EPICS XL flow cytometer. Cytotoxicity was determined by trypan blue exclusion assay. […] Cell growth and induction of apoptosis were determined both by colorimetric assay and now cytometric detection of APO2.7 after 48 h treatment. […] Proliferation of MM cells was then assessed by [^3H]-thymidine uptake. […] DNA synthesis was measured by [^3H]-thymidine uptake. […] Angiogenesis assay: The anti-angiogenic effect of HNK was determined using an In Vitro Angiogenesis Assay Kit (Chemicon, Temecula, Calif.). […] After 6 h, tube formation by endothelial cells was evaluated. Direct toxicity of HNK against HUVEC was determined by calorimetric assay. […]

normal PBMNCs = settings: 15 ug/ml, 48 h, n=3
Description: as §1

MM.1S cells = settings: 10 ug/ml, 24 h
Description: as §1

`C=CCc1ccc(O)c(-c2ccc(O)c(CC=C)c2)c1` [HNK, Honokiol] was tested, and the APO2.7 positive cells (RPM18226 cells) was 32.9±0.6%, the “APO2.7 positive cells in normal PBMNCs” value (normal PBMNCs) was “did not induce APO2.7 positive cells” and the APO2.7 positive cells (MM.1S cells) was 21.7±3.4%.
